Reference: BindingDB's records for doi:10.1021/acsmedchemlett.9b00625 (Rwth Aachen University, 2020)

Key:
[1] = Inhibition of BRD4 in human HEL cells harboring JAK2 V617F mutant assessed as decrease in metabolic activity measured after 72 hrs by MTT assay
[2] = Inhibition of BRD4 in human MOLM-14 cells harboring FLT3-ITD mutant assessed as decrease in metabolic activity measured after 72 hrs by MTT assay

IC50 [1]: 500 nM
IC50 [2]: 1000 nM
Compound: CN1Cc2cc(N=[S@@](C)(=O)c3ccccc3)ccc2NC1=O
